Measurements published in the NIST ThermoML archive (doi:10.1016/j.jct.2019.02.011).

Experiment: xn = mol fraction of the nth substance listed
Conditions: Liquid, Vibrating tube method

COC(=O)OC [dimethyl carbonate] + CCO
mass density [kg/m3]
Conditions	100 kPa	5000 kPa	10000 kPa	15000 kPa	20000 kPa	25000 kPa	30000 kPa	35000 kPa	40000 kPa
298.15 K, x1 = 0.0252	–	–	–	–	–	814.77	818.23	821.35	824.85
298.15 K, x1 = 0.0506	–	–	–	–	–	824.39	827.85	831.03	834.55
298.15 K, x1 = 0.0757	–	–	–	–	–	833.72	837.24	840.42	843.95
298.15 K, x1 = 0.1003	–	–	–	–	–	842.57	846.09	849.38	852.92
298.15 K, x1 = 0.1508	–	–	–	–	–	860.52	864.11	867.41	871.01
298.15 K, x1 = 0.2	–	–	–	–	–	877.33	880.97	884.34	887.93
298.15 K, x1 = 0.2547	–	–	–	–	–	895.44	899.14	902.52	906.18
298.15 K, x1 = 0.3002	–	–	–	–	–	910.03	913.74	917.13	920.8
298.15 K, x1 = 0.3498	–	–	–	–	–	925.47	929.2	932.65	936.29
298.15 K, x1 = 0.4	–	–	–	–	–	940.64	944.38	947.84	951.52
298.15 K, x1 = 0.449	–	–	–	–	–	954.89	958.68	962.16	965.81
298.15 K, x1 = 0.4996	–	–	–	–	–	969.11	972.91	976.39	980.05
298.15 K, x1 = 0.5507	–	–	–	–	979.03	982.99	986.8	990.35	994.01
298.15 K, x1 = 0.6005	–	–	–	–	992.03	996	999.82	1003.37	1006.99
298.15 K, x1 = 0.6455	–	–	–	–	1003.31	1007.29	1011.17	1014.73	1018.41
298.15 K, x1 = 0.6931	–	–	–	–	1014.9	1018.88	1022.77	1026.34	1030.03
298.15 K, x1 = 0.7502	–	–	–	–	1028.23	1032.23	1036.12	1039.75	1043.4
298.15 K, x1 = 0.8009	–	–	–	–	1039.69	1043.7	1047.6	1051.24	1054.89
298.15 K, x1 = 0.8505	–	–	–	–	1050.49	1054.48	1058.39	1062.04	1065.71
298.15 K, x1 = 0.9008	–	–	–	–	1061.05	1065.07	1068.99	1072.64	1076.29
298.15 K, x1 = 0.9255	–	–	–	–	1066.12	1070.15	1074.07	1077.73	1081.38
298.15 K, x1 = 0.9477	–	–	–	–	1070.6	1074.63	1078.55	1082.21	1085.85
298.15 K, x1 = 0.9735	–	–	–	–	1075.75	1079.76	1083.68	1087.3	1090.94
298.15 K, x1 = 1	–	–	–	–	1080.9	1084.89	1088.82	1092.44	1096.04
303.15 K, x1 = 0.0252	790.52	794.85	799.09	803.19	807.07	810.85	814.45	–	–
303.15 K, x1 = 0.0506	799.8	804.24	808.54	812.68	816.57	820.4	824.05	–	–
303.15 K, x1 = 0.0757	808.95	813.38	817.69	821.83	825.78	829.67	833.32	–	–
303.15 K, x1 = 0.1003	817.66	822.15	826.46	830.66	834.61	838.5	842.15	–	–
303.15 K, x1 = 0.1508	835.2	839.75	844.12	848.37	852.39	856.28	859.99	–	–
303.15 K, x1 = 0.2	851.75	856.29	860.68	864.98	869.06	873.01	876.77	–	–
303.15 K, x1 = 0.2547	869.58	874.18	878.59	882.88	886.98	890.99	894.76	–	–
303.15 K, x1 = 0.3002	883.92	888.57	893.03	897.33	901.44	905.46	909.28	–	–
303.15 K, x1 = 0.3498	899.15	903.81	908.28	912.64	916.76	920.83	924.6	–	–
303.15 K, x1 = 0.4	914.01	918.72	923.21	927.61	931.75	935.83	939.65	–	–
303.15 K, x1 = 0.449	928.1	932.82	937.32	941.72	945.87	949.95	953.78	–	–
303.15 K, x1 = 0.4996	942.11	946.83	951.34	955.75	959.95	964.05	967.88	–	–
303.15 K, x1 = 0.5507	955.78	960.51	965.03	969.44	973.66	977.76	981.64	–	–
303.15 K, x1 = 0.6005	968.59	973.37	977.9	982.31	986.54	990.65	994.54	–	–
303.15 K, x1 = 0.6455	979.73	984.57	989.11	993.57	997.8	1001.97	1005.86	–	–
303.15 K, x1 = 0.6931	991.23	996.02	1000.62	1005.08	1009.33	1013.44	1017.34	–	–
303.15 K, x1 = 0.7502	1004.42	1009.26	1013.82	1018.28	1022.54	1026.71	1030.61	–	–
303.15 K, x1 = 0.8009	1015.74	1020.59	1025.15	1029.62	1033.88	1038.07	1041.97	–	–
303.15 K, x1 = 0.8505	1026.43	1031.28	1035.85	1040.32	1044.59	1048.83	–	–	–
303.15 K, x1 = 0.9008	1036.88	1041.74	1046.31	1050.81	1055.12	1059.33	–	–	–
303.15 K, x1 = 0.9255	1041.88	1046.76	1051.32	1055.83	1060.15	1064.37	–	–	–
303.15 K, x1 = 0.9477	1046.34	1051.21	1055.79	1060.28	1064.6	1068.85	–	–	–
303.15 K, x1 = 0.9735	1051.45	1056.32	1060.89	1065.37	1069.67	1073.92	–	–	–
303.15 K, x1 = 1	1056.61	1061.47	1066.02	1070.49	1074.79	1078.99	–	–	–
